Measured values: paper PMC8480782, “Efficient Dimerization Disruption of Leishmania infantum Trypanothione Reductase by Triazole-phenyl-thiazoles” (Journal of Medicinal Chemistry, 2021)

Key:
TbTryR = molecular target: T1, TbTryR (Trypanosoma brucei brucei, UniProt P39051); assay: TryR oxidoreductase activity, DTNB-coupled assay (TbTryR); format: biochemical; settings: read-out: IC50, oxidoreductase activity of TbTryR
T1 construct: HIS; made in house; host or cells: E. coli
From the text: (§1) The DNA coding sequences for Homo sapiens GR, T. brucei TryR, and T. congolense TryR were polymerase chain reaction (PCR)-amplified and cloned in the pRSETA plasmid. The DNA coding for hGR (transcript variant 1; NCBI Reference Sequence: NM_000637.5) was purchased from GeneScript. Genomic DNA from T. congolense parasites was kindly provided by Dr. Stefan Magez (University of Vrije, Brussels). Genomic DNA from the T. brucei S16 cell line was kindly provided by José M. Pérez-Victoria. Instituto de Parasitología y Biomedicina “López—Neyra” CSIC. HIS-tagged recombinant T. brucei and T. congolense TryRs (TbTryR and TcoTryR, respectively) were purified from E. coli as already explained for LiTryR.
(§2) TryR oxidoreductase activity was determined spectrophotometrically using a modified version of the DTNB-coupled assay described by Hamilton et al.[52] Briefly, reactions were carried out at 26 °C in 250 μL of N-(2-hydroxyethyl)piperazine-N′-ethanesulfonic acid (HEPES) buffer (pH 7.5, 40 mM) containing ethylenediaminetetraacetic acid (EDTA) (1 mM), NADP^+ (30 μM), DTNB (25 μM), TS2 (1 μM), NADPH (150 μM), glycerol (0.02%), DMSO (1.75%), and recombinant TryR (7 nM). […] Reactions were started by addition of a mixture of NADPH and TS2.
(§3) TryR oxidoreductase activity was monitored at 26 °C by an increase in absorbance at 412 nm in an EnSpire Multimode Plate Reader (PerkinElmer, Waltham, MA). […] (TNB) concentration was obtained by multiplying the absorbance values by 100 (50 μM TNB generates 0.5 arbitrary units of absorbance at 412 nm). In this DTNB-coupled assay, one molecule of T(SH)2 reduces one molecule of DTNB, producing two TNB molecules. All of the assays were conducted in at least three independent experiments. Data were analyzed using a nonlinear regression model with GraFit 6 software (Erithacus, Horley, Surrey, U.K.).

TcoTryR = molecular target: T2, TcoTryR (Trypanosoma congolense, UniProt P13110); assay: TryR oxidoreductase activity, DTNB-coupled assay (TcoTryR); format: biochemical
T2 construct: HIS; made in house; host or cells: E. coli
From the text: as §1, §2, §3

[1] = test system: L. infantum promastigotes; assay: Leishmanicidal activity on promastigotes (PI exclusion, flow cytometry); format: cell-based, Leishmania infantum; settings: Leishmania infantum; 24 h at 26 °C; read-out: EC50 promastigotes
Method: (§4) L. infantum promastigotes (MCAN/ES/89/IPZ229/1/89) were grown in Roswell Park Memorial Institute (RPMI)-1640 medium (Sigma-Aldrich, St. Louis, MO) supplemented with 10% heat-inactivated fetal calf serum (FCS), antibiotics, and 25 mM HEPES (pH 7.2) at 26 °C. L. infantum axenic amastigotes (MCAN/ES/89/IPZ229/1/89) were grown in M199 medium (Invitrogen, Leiden, The Netherlands) supplemented with 10% heat-inactivated FCS, 1 g/L β-alanine, 100 mg/L L-asparagine, 200 mg/L sucrose, 50 mg/L sodium pyruvate, 320 mg/L malic acid, 40 mg/L fumaric acid, 70 mg/L succinic acid, 200 mg/L α-ketoglutaric acid, 300 mg/L citric acid, 1.1 g/L sodium bicarbonate, 5 g/L morpholineethanesulfonic acid (MES), 0.4 mg/L hemin, and 10 mg/L gentamicine, pH 5.4, at 37 °C.
(§5) Drug treatment of L. infantum promastigotes was performed during the logarithmic growth phase at a concentration of 2 × 10^6 parasites/mL at 26 °C for 24 h. […] EC50 was evaluated by flow cytometry by the propidium iodide (PI) exclusion method. After selection of the parasite population based on their forward scatter (FSC) and side scatter (SSC) values, live and dead parasite cells were identified by their permeability to PI. All of the assays were conducted in triplicate in at least three independent experiments. Data were analyzed using a nonlinear regression model with GraFit 6 software (Erithacus, Horley, Surrey, U.K.).

[2] = test system: L. infantum axenic amastigotes; assay: Leishmanicidal activity on axenic amastigotes (PI exclusion, flow cytometry); format: cell-based, Leishmania infantum; settings: Leishmania infantum; axenic amastigotes, 24 h at 37 °C; read-out: EC50 amastigotes
Method: as §4
Axenization was performed by diluting 0.5 mL of a 7-day stationary phase culture of L. infantum promastigotes (2–3 × 10^7 parasites/mL) in 4.5 mL of amastigotes medium and incubating the culture at 37 °C for 2 or 3 days. L. infantum axenic amastigotes apparition was followed by phase-contrast microscopy using an Eclipse Ti inverted microscope (Nikon, Tokyo, Japan).
as §5

HepG2 cells = assay: Cellular toxicity, crystal violet assay; format: cell-based; settings: Homo sapiens, HepG2; 24 h, crystal violet method; read-out: EC50 HepG2
Method: Liver hepatocellular carcinoma HepG2 cells were grown in Dulbecco’s modified Eagle’s medium (DMEM) (Sigma-Aldrich, St. Louis, MO) with 10% heat-inactivated FCS, antibiotics, and 10 mM HEPES.
Drug treatment of liver hepatocellular carcinoma HepG2 cells was performed at a concentration of 10^5 cells/mL at 37 °C and 5% CO2 for 24 h. EC50 was evaluated by the crystal violet assay. Briefly, cells were washed with phosphate-buffered saline (PBS) and stained with 200 μL of crystal violet solution (0.2% crystal violet, 2% ethanol) for 10 min at room temperature. Next, the plates were washed twice with tap water and allowed to dry. The stained cells were solubilized with 400 μL of 1% sodium dodecyl sulfate (SDS), and the color intensity was quantified at 570 nm using an EnSpire Multimode Plate Reader (PerkinElmer, Waltham, MA). All of the assays were conducted in triplicate in at least three independent experiments. Data were analyzed using a nonlinear regression model with GraFit 6 software (Erithacus, Horley, Surrey, U.K.).

[3] = test system: L. infantum intracellular amastigotes; assay: Leishmanicidal activity in amastigote-infected THP-1 monocyte-derived macrophages; format: cell-based, Leishmania infantum; settings: Leishmania infantum, THP-1, 72 h, read-out: EC50 intracellular amastigotes, amastigote-infected THP-1 macrophages, 72 h
Method: (§6) THP-1 monocytes were seeded in a 48-well plate at a concentration of 5 × 10^5 cells/mL (250 μL/well) in RPMI complete medium supplemented with phorbol 12-myristate 13-acetate (PMA) (100 ng/mL). Differentiation of THP-1 monocytes to macrophages was allowed for 24 h at 37 °C and 5% CO2. THP-1-derived macrophages were infected with GFP-expressing axenic amastigotes at 5 × 10^6 parasites/mL in RPMI complete medium for 24 h (250 μL/well). Extracellular amastigotes were washed twice with PBS. The remaining extracellular parasites were challenged for 24 h with THP-1 medium supplemented with 10% horse serum (Gibco) instead of FCS. Cells were washed twice with PBS, and treatments were performed in 250 μL of fresh RPMI medium supplemented with 10% horse serum for 72 h at 37 °C and 5% CO2. Afterward, treatments were removed by two PBS washes. Lysis of infected cells was performed with 120 μL of SDS 0.005% (w/v) in PBS. After a 30 min incubation at 37 °C, lysis was stopped by adding RPMI complete medium with PI at 20 μg/mL (120 μL/well). The lysates were transferred to a 96-well plate (200 μL/well), and the GFP^+ amastigotes extracted from the infected cells were acquired by a Beckman Coulter FC500 flow cytometer. Each sample (100 μL) was acquired for 20 s.
The relative number of GFP^+ intracellular amastigotes per cell in each sample was estimated after the division of the total number of GFP+ amastigotes by the LDH activity value of the sample. Results were normalized to the vehicle-treated controls. EC50 values of intracellular amastigotes were calculated using a nonlinear regression model with GraFit 6 software (Erithacus, Horley, Surrey, U.K.). All of the assays were conducted in at least three independent experiments.

[4] = test system: THP-1 monocyte-derived macrophages; assay: Cytotoxicity in THP-1 monocyte-derived macrophages (LDH activity); format: cell-based, human; settings: Homo sapiens, THP-1; LDH activity
Method: THP-1 cells were grown in RPMI-1640 medium (Gibco, Leiden, The Netherlands) supplemented with 10% heat-inactivated FCS, antibiotics, 10 mM HEPES, 2 mM glutamine, and 1 mM sodium pyruvate, pH 7.2, at 37 °C and 5% CO2.
as §6
Cytotoxicity of THP-1 infected macrophages was determined using an in-house developed lactate dehydrogenase (LDH) activity assay. LDH activity assays from the remaining cell lysates (100 μL/well) were carried out at 37 °C in 250 μL of Tris/HCl buffer (pH 8.9, 50 mM) containing DL-lactate (840 mM), NAD^+ (450 μM), 1-methoxyphenazine methosulfate (45 μM), and nitro blue tetrazolium chloride (40 μM). The color intensity of the generated formazan dye was monitored at 570 nm using an EnSpire Multimode Plate Reader (PerkinElmer, Waltham, MA). CC50 values were calculated using a nonlinear regression model with GraFit 6 software (Erithacus, Horley, Surrey, U.K.).

LiTryR = molecular target: T3, LiTryR (Leishmania infantum, UniProt A4HSF7); assay: biochemical; format: biochemical; settings: LiTryR; 1 μM TS2; maximum assayed 75 μM; read-out: IC50^act, TryR oxidoreductase activity
T3 construct: HIS (N); made in house; host or cells: E. coli BL21 (DE3) Rossetta
Method: A concentration of 1 μM TS2 was used for this initial screening. This low substrate concentration is sufficient for comparison of compound inhibitory activity in the oxidoreductase assay.
Recombinant L. infantum TryR (LiTryR) HIS-tagged and HIS-FLAG-tagged versions were used for all LiTryR oxidoreductase activity and dimer quantitation assays. These LiTryR versions were purified from Escherichia coli as previously described.[25] Briefly, pRSETA-HIS-LiTryR construct alone or in combination with the pET24a-FLAG-LiTryR construct was transformed into BL21 (DE3) Rossetta E. coli strain. An overnight E. coli culture grown at 37 °C in Luria–Bertani (LB) medium with the appropriate antibiotics and vigorous shaking was diluted (1:100) in the same medium and allowed to grow in the same conditions until the OD600 was 0.5. Then, LiTryR expression was induced by addition of 1 mM isopropyl-β-D-1-thiogalactopyranoside (IPTG) for 16 h at 26 °C. The cells were centrifuged for 5 min at 9000g and 4 °C and the wet pellet resuspended in lysis buffer (50 mM Tris, pH 7, 300 mM NaCl, 25 mM imidazole, protease inhibitor cocktail, and 1 mg/mL lysozyme). […] The supernatant was sonicated again as previously described for 10 min and loaded on a HisTrap column (GE Healthcare, Chicago, IL) for 16 h at 4 °C using a P-1 peristaltic pump (GE Healthcare, Chicago, IL). Once loaded, the HisTrap column was connected to an ÄKTA purifier UPC 10 (GE Healthcare, Chicago, IL) and washed using a 5–10% gradient between buffer A (50 mM Tris, pH 7 and 300 mM NaCl) and B (50 mM Tris, pH 7, 300 mM NaCl, and 500 mM imidazole). LiTryR was eluted using a 40% gradient between buffers A and B. Fractions containing recombinant LiTryR were pooled and loaded into a HiPrep 26/10 Desalting column (GE Healthcare, Chicago, IL) previously equilibrated with buffer A. Finally, LiTryR was concentrated to 2 mg/mL using an Amicon Ultra-15 50K (Merck Millipore, Burlington, MA) and an equal volume of glycerol was added before storing at −20 °C.
as §2, §3

LiTryR dimer = molecular target: T4, LiTryR dimer (Leishmania infantum, UniProt A4HSF7); assay: biochemical; settings: 400 nM LiTryR, 16 h at 37 °C; read-out: IC50^dim, LiTryR monomer displacement (dimer quantitation ELISA)
T4 construct: made in house; host or cells: E. coli BL21 (DE3) Rossetta (co-transformed with both plasmids)
Method: The stability of the LiTryR dimeric form in the presence of 1,2,3-triazole-phenyl-thiazole-based compounds was evaluated using the novel enzyme-linked immunosorbent assay (ELISA) developed in our laboratory.[25] […] Next, the different solutions were centrifuged at 18 000g for 15 min at room temperature. The supernatants (200 μL/well) were added to the α-FLAG-coated plates (Sigma-Aldrich, St. Louis, MO) and incubated for 30 min at 37 °C with agitation in a humid atmosphere. The plates were washed five times with TTBS buffer (2 mM Tris, pH 7.6, 138 mM NaCl, and 0.1% Tween-20) and incubated with diluted monoclonal α-HIS horseradish peroxidase (HRP)-conjugated antibody (200 μL, 1:50 000, Abcam, Cambridge, U.K.) in fatty acid- and essentially globulin-free bovine serum albumin (BSA) (5%) prepared in TTBS buffer for 1 h at room temperature. The plates were washed five times, and o-phenylenediamine dihydrochloride (OPD) substrate prepared according to the manufacturer’s instructions was added. The enzymatic reaction was stopped after 5 min with H2SO4 (100 μL, […]), and the absorbances were measured at 490 nm in an EnSpire Multimode Plate Reader (PerkinElmer, Waltham, MA). All of the assays were conducted in triplicate in at least three independent experiments. Data were analyzed using a nonlinear regression model with GraFit 6 software (Erithacus, Horley, Surrey, U.K.).

T2 sequence (P13110 whole entry): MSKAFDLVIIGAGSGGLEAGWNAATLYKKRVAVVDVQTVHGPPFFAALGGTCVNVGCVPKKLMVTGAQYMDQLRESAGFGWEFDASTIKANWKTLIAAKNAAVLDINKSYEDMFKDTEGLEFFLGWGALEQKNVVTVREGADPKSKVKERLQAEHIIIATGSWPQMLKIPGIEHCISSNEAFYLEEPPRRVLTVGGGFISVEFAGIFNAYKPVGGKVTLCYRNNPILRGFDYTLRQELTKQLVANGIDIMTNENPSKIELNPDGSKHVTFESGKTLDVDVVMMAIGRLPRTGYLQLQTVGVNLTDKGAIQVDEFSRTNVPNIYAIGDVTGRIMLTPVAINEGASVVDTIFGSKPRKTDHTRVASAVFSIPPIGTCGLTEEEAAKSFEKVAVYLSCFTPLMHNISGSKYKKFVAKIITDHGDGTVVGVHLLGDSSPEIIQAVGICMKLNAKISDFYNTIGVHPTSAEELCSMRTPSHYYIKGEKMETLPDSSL
T1 sequence (P39051 whole entry): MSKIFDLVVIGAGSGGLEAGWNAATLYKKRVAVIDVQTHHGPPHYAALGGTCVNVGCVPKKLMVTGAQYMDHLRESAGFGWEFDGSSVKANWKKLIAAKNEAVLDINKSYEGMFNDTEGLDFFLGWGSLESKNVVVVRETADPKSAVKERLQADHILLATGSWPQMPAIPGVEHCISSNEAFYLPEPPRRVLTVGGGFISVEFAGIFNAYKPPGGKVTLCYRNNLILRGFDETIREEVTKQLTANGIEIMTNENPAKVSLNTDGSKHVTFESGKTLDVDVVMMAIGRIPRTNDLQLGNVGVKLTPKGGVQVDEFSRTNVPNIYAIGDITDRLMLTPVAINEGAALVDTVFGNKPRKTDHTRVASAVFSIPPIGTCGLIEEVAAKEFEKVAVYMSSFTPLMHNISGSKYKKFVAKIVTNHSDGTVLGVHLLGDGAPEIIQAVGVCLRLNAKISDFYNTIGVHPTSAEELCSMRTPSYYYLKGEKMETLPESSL
T4 sequence (A4HSF7 1-491): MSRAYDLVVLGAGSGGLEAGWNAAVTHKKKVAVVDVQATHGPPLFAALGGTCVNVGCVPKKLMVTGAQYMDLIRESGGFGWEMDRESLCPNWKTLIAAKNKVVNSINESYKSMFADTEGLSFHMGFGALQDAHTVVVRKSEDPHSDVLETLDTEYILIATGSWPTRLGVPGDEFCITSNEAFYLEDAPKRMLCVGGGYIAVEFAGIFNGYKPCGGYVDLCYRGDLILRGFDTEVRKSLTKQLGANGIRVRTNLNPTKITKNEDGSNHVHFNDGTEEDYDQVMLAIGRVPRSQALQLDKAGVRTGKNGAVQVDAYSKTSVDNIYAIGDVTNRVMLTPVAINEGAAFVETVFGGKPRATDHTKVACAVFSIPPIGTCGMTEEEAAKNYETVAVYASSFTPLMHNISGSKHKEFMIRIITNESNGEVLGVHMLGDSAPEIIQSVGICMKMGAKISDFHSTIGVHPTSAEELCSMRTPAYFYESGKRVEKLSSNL
T3 sequence (A4HSF7 1-491): as above

| Compound | IC50 (TbTryR) | IC50 (TcoTryR) | EC50 [1] | EC50 [2] | EC50 (HepG2 cells) | EC50 [3] | EC50 [4] | IC50 (LiTryR) | IC50 (LiTryR dimer) | melting point |
| --- | --- | --- | --- | --- | --- | --- | --- | --- | --- | --- |
| NCCCCc1cn(-c2ccc(-c3nc(CCc4ccccc4)cs3)c(OCCN3CCNC3=O)c2)nn1 [12a, 1-(2-(5-(4-(4-Ammoniumbutyl)-1H-1,2,3-triazol-1-yl)-2-(4-phenethylthiazol-2-yl)phenoxy)ethyl)imidazolidin-2-one 2,2,2-Trifluoroacetate] | 13.3 ± 1.9 µM | 11 ± 1.3 µM | 16.4 ± 0.9 µM | 13.9 ± 0.6 µM | 20.3 ± 2.4 µM | 32.4 ± 6.7 µM | 45 ± 3.1 µM |  |  |  |
| O=C(O)CCCc1cn(-c2ccc(-c3nc(CCc4ccccc4)cs3)c(OCCN3CCNC3=O)c2)nn1 [12g] |  |  |  |  |  |  |  | > 75 µM | > 75 µM | 174.5 to 177.5 °C |
